Assay results taken from patent US20210045385A1, “PYRIDAZINONE-SUBSTITUTED KETOXIMES AS HERBICIDES” (FMC Corporation, priority 2018, published 2021).

What was measured:
Type in all cases: in vivo
[1] = tested on: ragweed (common ragweed, Ambrosia artemisiifolia); test: Test C preemergence, visual plant response rating; details: Test C, 0 is no effect, 100 is complete control
Outline: (§1)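 Visual injury on a 0 (no effect) to 100 (complete control) scale versus untreated controls, scored approximately 10 d after treatment under greenhouse conditions. Treatments used surfactant-containing non-phytotoxic solvent formulations, sprayed onto loam–sand soil preemergence or onto one- to two-leaf plants 2–10 cm tall postemergence.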

[2] = tested on: Italian ryegrass (Lolium mutiflorum); test: Test C preemergence, visual plant response rating; details: Test C, 0 is no effect, 100 is complete control
Outline: as §1

[3] = tested on: barnyardgrass (Echinochloa crus-galli); test: Test C preemergence, visual plant response rating; details: Test C, 0 is no effect, 100 is complete control
Outline: as §1

[4] = tested on: kochia (Bassia scoparia); test: Test C preemergence, visual plant response rating; details: Test C, 0 is no effect, 100 is complete control
Outline: as §1

[5] = tested on: pigweed (Amaranthus retroflexus); test: Test C preemergence, visual plant response rating; details: Test C, 0 is no effect, 100 is complete control
Outline: as §1

[6] = tested on: foxtail, giant (giant foxtail, Setaria faberi); test: Test C preemergence, visual plant response rating; details: Test C, 0 is no effect, 100 is complete control
Outline: as §1

[7] = tested on: barnyardgrass (Echinochloa crus-galli); test: Test D flooded paddy test, visual plant response rating; details: 250 g ai/ha, scale 0 to 100 (0 no effect, 100 complete control), 13 to 15 d
Outline: (§2)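 Visual injury scores, 0 (no effect) to 100 (complete control), were assigned after 13 to 15 d in the greenhouse by comparison with controls. Test compounds had been added to paddy water covering soil by 3 cm at the 2-leaf stage.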

[8] = tested on: rice (Oryza sativa); test: as above; details: 250 g ai/ha, scale 0 to 100 (0 no effect, 100 complete control), 13 to 15 d
Outline: as §2

[9] = tested on: sedge umbrella (small-flower umbrella sedge, Cyperus difformis); test: as above; details: 250 g ai/ha, scale 0 to 100 (0 no effect, 100 complete control), 13 to 15 d
Outline: as §2

[10] = tested on: duck salad (Heteranthera limosa); test: as above; details: 250 g ai/ha, scale 0 to 100 (0 no effect, 100 complete control), 13 to 15 d
Outline: as §2

[11] = tested on: ragweed (common ragweed, Ambrosia artemisiifolia); test: Test C postemergence, visual plant response rating
Outline: as §1

[12] = tested on: Italian ryegrass (Lolium mutiflorum); test: Test C postemergence, visual plant response rating
Outline: as §1

[13] = tested on: barnyardgrass (Echinochloa crus-galli); test: Test C postemergence, visual plant response rating
Outline: as §1

[14] = tested on: kochia (Bassia scoparia); test: Test C postemergence, visual plant response rating
Outline: as §1

[15] = tested on: corn (Zea mays); test: Test C postemergence, visual plant response rating
Outline: as §1

[16] = tested on: pigweed (Amaranthus retroflexus); test: Test C postemergence, visual plant response rating
Outline: as §1

[17] = tested on: wheat (Triticum aestivum); test: Test C postemergence, visual plant response rating
Outline: as §1

[18] = tested on: galium (catchweed bedstraw, Galium aparine); test: Test C postemergence, visual plant response rating
Outline: as §1

[19] = tested on: foxtail, giant (giant foxtail, Setaria faberi); test: Test C postemergence, visual plant response rating
Outline: as §1

[20] = tested on: blackgrass (Alopecurus myosuroides); test: Test C postemergence, visual plant response rating
Outline: as §1

[21] = Test C, postemergence, 125 g ai/ha

Row | Structure (SMILES) | Ragweed plant response rating (0 to 100 scale) ([1]; 31 g ai/ha) | Ragweed plant response rating (0 to 100 scale) ([1]; 125 g ai/ha) | Ryegrass, Italian plant response rating (0 to 100 scale) ([2]; 31 g ai/ha) | Ryegrass, Italian plant response rating (0 to 100 scale) ([2]; 125 g ai/ha) | Barnyardgrass plant response rating (0 to 100 scale) ([3]; 31 g ai/ha) | Barnyardgrass plant response rating (0 to 100 scale) ([3]; 125 g ai/ha) | Kochia plant response rating (0 to 100 scale) ([4]; 31 g ai/ha) | Kochia plant response rating (0 to 100 scale) ([4]; 125 g ai/ha) | Pigweed plant response rating (0 to 100 scale) ([5]; 31 g ai/ha) | Pigweed plant response rating (0 to 100 scale) ([5]; 125 g ai/ha) | Foxtail, Giant plant response rating (0 to 100 scale) ([6]; 31 g ai/ha) | Foxtail, Giant plant response rating (0 to 100 scale) ([6]; 125 g ai/ha) | Plant response rating, Barnyardgrass (Flood) [7] | Plant response rating, Rice (Flood) [8] | Plant response rating, Sedge, Umbrella (Flood) [9] | Plant response rating, Ducksalad (Flood) [10] | Ragweed plant response rating (0 to 100 scale) ([11]; Postemergence, 31 g ai/ha) | Ragweed plant response rating (0 to 100 scale) [11, 21] | Ryegrass, Italian plant response rating (0 to 100 scale) ([12]; Postemergence, 31 g ai/ha) | Ryegrass, Italian plant response rating (0 to 100 scale) [12, 21] | further results
1 | CO/N=C(\c1cc(Cl)c(F)c(Cl)c1)c1c(O)c(C)nn(C)c1=O [Compound 290] | 20 | 90 | 0 | 40 | 0 | 0 | 0 | 0 | 10 | 30 | 0 | 20 | 0 | 0 | 0 | 0 | 20 | 50 | 0 | 60 | Barnyardgrass plant response rating (0 to 100 scale) ([13]; Postemergence, 31 g ai/ha): 0; Barnyardgrass plant response rating (0 to 100 scale) [13, 21]: 20; Kochia plant response rating (0 to 100 scale) ([14]; Postemergence, 31 g ai/ha): 0; Kochia plant response rating (0 to 100 scale) [14, 21]: 20; Corn plant response rating (0 to 100 scale) ([15]; Postemergence, 31 g ai/ha): 0; Corn plant response rating (0 to 100 scale) [15, 21]: 0; Pigweed plant response rating (0 to 100 scale) ([16]; Postemergence, 31 g ai/ha): 0; Pigweed plant response rating (0 to 100 scale) [16, 21]: 0; Wheat plant response rating (0 to 100 scale) ([17]; Postemergence, 31 g ai/ha): 0; Wheat plant response rating (0 to 100 scale) [17, 21]: 0; Galium plant response rating (0 to 100 scale) ([18]; Postemergence, 31 g ai/ha): 70; Galium plant response rating (0 to 100 scale) [18, 21]: 100; Foxtail, Giant plant response rating (0 to 100 scale) ([19]; Postemergence, 31 g ai/ha): 0; Foxtail, Giant plant response rating (0 to 100 scale) [19, 21]: 0; Blackgrass plant response rating (0 to 100 scale) ([20]; Postemergence, 31 g ai/ha): 0; Blackgrass plant response rating (0 to 100 scale) [20, 21]: 0
2 | C#CCO/N=C(/c1ccc(F)c(Cl)c1)c1c(O)c(C)nn(C)c1=O [Compound 229] | 0 | 0 | 20 | 90 | 0 | 30 | 0 | 0 | 10 | 40 | 10 | 30 | 0 | 0 | 0 | 0 | 10 | 20 | 40 | 70 | Barnyardgrass plant response rating (0 to 100 scale) ([13]; Postemergence, 31 g ai/ha): 0; Barnyardgrass plant response rating (0 to 100 scale) [13, 21]: 30; Kochia plant response rating (0 to 100 scale) ([14]; Postemergence, 31 g ai/ha): 0; Kochia plant response rating (0 to 100 scale) [14, 21]: 0; Corn plant response rating (0 to 100 scale) ([15]; Postemergence, 31 g ai/ha): 0; Corn plant response rating (0 to 100 scale) [15, 21]: 40; Pigweed plant response rating (0 to 100 scale) ([16]; Postemergence, 31 g ai/ha): 20; Pigweed plant response rating (0 to 100 scale) [16, 21]: 50; Wheat plant response rating (0 to 100 scale) ([17]; Postemergence, 31 g ai/ha): 30; Wheat plant response rating (0 to 100 scale) [17, 21]: 60; Galium plant response rating (0 to 100 scale) ([18]; Postemergence, 31 g ai/ha): 60; Galium plant response rating (0 to 100 scale) [18, 21]: 80; Foxtail, Giant plant response rating (0 to 100 scale) ([19]; Postemergence, 31 g ai/ha): 10; Foxtail, Giant plant response rating (0 to 100 scale) [19, 21]: 40; Blackgrass plant response rating (0 to 100 scale) ([20]; Postemergence, 31 g ai/ha): 50; Blackgrass plant response rating (0 to 100 scale) [20, 21]: 0
3 | CON=C(c1cc(Cl)cc(Cl)c1F)c1c(O)c(C)nn(C)c1=O [Compound 299] | 90 | 100 | 100 | 100 | 90 | 100 | 90 | 100 | 100 | 100 | 100 | 100 | 85 | 45 | 90 | 80 | 100 | 100 | 100 | 100 | Barnyardgrass plant response rating (0 to 100 scale) ([13]; Postemergence, 31 g ai/ha): 70; Barnyardgrass plant response rating (0 to 100 scale) [13, 21]: 90; Kochia plant response rating (0 to 100 scale) ([14]; Postemergence, 31 g ai/ha): 100; Kochia plant response rating (0 to 100 scale) [14, 21]: 100; Corn plant response rating (0 to 100 scale) ([15]; Postemergence, 31 g ai/ha): 10; Corn plant response rating (0 to 100 scale) [15, 21]: 30; Pigweed plant response rating (0 to 100 scale) ([16]; Postemergence, 31 g ai/ha): 90; Pigweed plant response rating (0 to 100 scale) [16, 21]: 100; Wheat plant response rating (0 to 100 scale) ([17]; Postemergence, 31 g ai/ha): 30; Wheat plant response rating (0 to 100 scale) [17, 21]: 70; Galium plant response rating (0 to 100 scale) ([18]; Postemergence, 31 g ai/ha): 100; Galium plant response rating (0 to 100 scale) [18, 21]: 100; Foxtail, Giant plant response rating (0 to 100 scale) ([19]; Postemergence, 31 g ai/ha): 90; Foxtail, Giant plant response rating (0 to 100 scale) [19, 21]: 100; Blackgrass plant response rating (0 to 100 scale) ([20]; Postemergence, 31 g ai/ha): 80; Blackgrass plant response rating (0 to 100 scale) [20, 21]: 80
